Where two headings read alike, the source gives them in different places.
What was measured:
human BACE1 = human BACE1 (Homo sapiens, UniProt P56817); assay: Fluorescent kinetic assay, inhibition of BACE1 (WABC-6 peptide substrate); assay type: biochemical;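 further: fluorescence monitored at 320 nm excitation and 420 nm emission every 40 s over 30 min, with the substrate cleavage rate taken from the linear slope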
human BACE2 = biological target: T1, human BACE2 (Homo sapiens, UniProt Q9Y5Z0); assay: Fluorescent Kinetic Assay for Human Recombinant BACE 2 (selectivity BACE1/BACE2); assay type: biochemical; conditions: selectivity BACE1 over BACE2; 1.5 nM human BACE2, 25 μM substrate, pH 4.5;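 further: cleavage rate from the linear slope of fluorescence (excitation 320 nm, emission 420 nm) recorded every 40 s over 30 min at room temperature, sodium acetate buffer with 0.05% CHAPS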
T1 sequence (Q9Y5Z0 63-518): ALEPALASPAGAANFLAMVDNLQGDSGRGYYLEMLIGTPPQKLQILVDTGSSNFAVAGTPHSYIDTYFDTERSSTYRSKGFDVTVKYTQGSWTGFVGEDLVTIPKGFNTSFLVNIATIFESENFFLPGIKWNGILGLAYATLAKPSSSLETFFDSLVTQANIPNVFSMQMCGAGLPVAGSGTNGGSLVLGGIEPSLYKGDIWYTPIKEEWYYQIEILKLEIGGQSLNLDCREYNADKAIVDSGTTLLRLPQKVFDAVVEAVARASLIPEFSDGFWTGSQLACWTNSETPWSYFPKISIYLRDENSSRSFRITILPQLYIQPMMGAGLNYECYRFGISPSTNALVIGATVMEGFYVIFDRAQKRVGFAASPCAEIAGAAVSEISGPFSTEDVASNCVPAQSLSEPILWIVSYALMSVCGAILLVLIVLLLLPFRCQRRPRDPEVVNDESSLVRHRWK

[1] = 10 nM enzyme, 25 μM substrate WABC-6, pH 4.5, room temperature, read-out: IC50 (μM) BACE1

human BACE1, sequence (P56817 46-501): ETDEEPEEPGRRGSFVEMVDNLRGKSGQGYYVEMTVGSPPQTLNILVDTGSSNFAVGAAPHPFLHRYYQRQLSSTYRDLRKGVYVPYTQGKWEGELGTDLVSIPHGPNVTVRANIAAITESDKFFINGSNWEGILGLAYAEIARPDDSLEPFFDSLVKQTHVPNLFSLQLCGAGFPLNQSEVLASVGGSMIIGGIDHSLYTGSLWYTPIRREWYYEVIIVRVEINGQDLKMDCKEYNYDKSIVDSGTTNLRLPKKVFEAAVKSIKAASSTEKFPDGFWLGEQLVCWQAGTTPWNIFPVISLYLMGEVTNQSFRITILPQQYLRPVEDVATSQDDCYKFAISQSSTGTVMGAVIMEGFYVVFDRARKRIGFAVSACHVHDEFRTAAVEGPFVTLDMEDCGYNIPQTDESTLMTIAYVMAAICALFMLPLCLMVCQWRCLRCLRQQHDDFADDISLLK

| IC50 (human BACE1) [µM] | IC50 (human BACE1; [1]) [µM] | BACE1/BACE2 selectivity (human BACE2) | SMILES |
| --- | --- | --- | --- |
|  | 0.01 to 0.1 | II (II = 10-100-fold selectivity) | Cc1cc(C2(c3cccc(-c4cccnc4)c3)N=C(N)N(C)C2=O)ccc1O (centres unmarked) [Example 10] |
| 0.01 to 0.1 |  | II (II = 10-100-fold selectivity) | COc1ccc(C2(c3cccc(-c4cccnc4)c3)N=C(N)N(C)C2=O)cc1OC(C)C (centres unmarked) [Example 18] |
| 0.11 to 1 |  | III (III = <10-fold selectivity) | COc1ccc(C2(c3cccc(-c4cccnc4)c3)N=C(N)N(C)C2=O)cc1C#N (centres unmarked) [Example 20] |
| 0.01 to 0.1 |  |  | COc1ccc(C2(c3cccc(-c4cccnc4)c3)N=C(N)N(C)C2=O)cc1F (centres unmarked) [Example 21] |
| 0.01 to 0.1 |  | II (II = 10-100-fold selectivity) | CCOc1cc(C2(c3cccc(-c4cccnc4)c3)N=C(N)N(C)C2=O)ccc1OC (centres unmarked) [Example 24] |
|  | 0.01 to 0.1 | III (III = <10-fold selectivity) | CN1C(=O)C(c2ccc(OC(F)(F)F)cc2)(c2cccc(-c3ncccn3)c2)N=C1N (centres unmarked) [Example 37, 2-Amino-3-methyl-5-(3-pyrimidin-2-ylphenyl)-5-[4-(trifluoromethoxy)phenyl]-3,5-dihydro-4H-imidazol-4-one] |
|  | 0.11 to 1 | II (II = 10-100-fold selectivity) | COc1ncccc1-c1cccc(C2(c3ccc(OC(F)(F)F)cc3)N=C(N)N(C)C2=O)c1 (centres unmarked) [Example 52] |
|  | 0.01 to 0.1 | II (II = 10-100-fold selectivity) | COc1ccc(C2(c3ccc(F)c(-c4ccc(F)nc4)c3)N=C(N)N(C)C2=O)cc1C(F)(F)F (centres unmarked) [Example 57] |
|  | 0.01 to 0.1 | II (II = 10-100-fold selectivity) | COc1ccc(C2(c3ccc(F)c(-c4cncc(F)c4)c3)N=C(N)N(C)C2=O)cc1 (centres unmarked) [Example 60] |
|  | 0.01 to 0.1 | II (II = 10-100-fold selectivity) | COc1ccc(C2(c3ccc(F)c(-c4cccnc4F)c3)N=C(N)N(C)C2=O)cc1 (centres unmarked) [Example 62] |
|  | 0.01 to 0.1 | I (I = >100-fold selectivity) | COc1ccc(C2(c3ccc(F)c(-c4cncnc4)c3)N=C(N)N(C)C2=O)cc1 (centres unmarked) [Example 63] |
|  | 0.11 to 1 | II (II = 10-100-fold selectivity) | CN1C(=O)C(c2ccc(OC(F)(F)F)cc2)(c2cccc(-c3ccc(F)nc3)c2)N=C1N (centres unmarked) [Example 65] |
|  | 0.01 to 0.1 | III (III = <10-fold selectivity) | CCOc1ccc(C2(c3cccc(-c4ccc(F)nc4)c3)N=C(N)N(C)C2=O)cc1OCC (centres unmarked) [Example 69] |
|  | 0.11 to 1 | II (II = 10-100-fold selectivity) | CN1C(=O)C(c2ccc(OC(F)(F)F)cc2)(c2ccc(F)c(-c3ccc(F)nc3)c2)N=C1N (centres unmarked) [Example 73] |
|  | 0.01 to 0.1 | II (II = 10-100-fold selectivity) | CN1C(=O)C(c2ccc(OC(F)(F)F)cc2)(c2ccc(F)c(-c3cccnc3F)c2)N=C1N (centres unmarked) [Example 74] |
|  | 0.01 to 0.1 | III (III = <10-fold selectivity) | COc1ccc(C2(c3ccc(F)c(-c4cncc(Cl)c4)c3)N=C(N)N(C)C2=O)cc1 (centres unmarked) [Example 80] |
|  | 0.01 to 0.1 | II (II = 10-100-fold selectivity) | CN1C(=O)C(c2ccc(OC(F)(F)F)cc2)(c2cccc(-c3cnccc3F)c2)N=C1N (centres unmarked) [Example 82] |
|  | 0.01 to 0.1 | II (II = 10-100-fold selectivity) | COc1ccc(C2(c3ccc(F)c(-c4cnccc4F)c3)N=C(N)N(C)C2=O)cc1 (centres unmarked) [Example 83] |
|  | 0.11 to 1 | I (I = >100-fold selectivity) | CN1C(=O)C(c2ccc(OC(F)(F)F)cc2)(c2cc(-c3cccnc3)ccc2F)N=C1N (centres unmarked) [Example 84] |
|  | 0.01 to 0.1 | II (II = 10-100-fold selectivity) | CN1C(=O)C(c2ccc(OC(F)F)cc2)(c2ccc(F)c(-c3ccc(F)nc3)c2)N=C1N (centres unmarked) [Example 88] |
|  | 0.01 to 0.1 | II (II = 10-100-fold selectivity) | CN1C(=O)C(c2ccc(OC(F)F)cc2)(c2cccc(-c3ccc(F)nc3)c2)N=C1N (centres unmarked) [Example 90] |
|  | 0.01 to 0.1 | II (II = 10-100-fold selectivity) | CN1C(=O)C(c2ccc(OC(F)F)cc2)(c2cccc(-c3cc(F)cnc3F)c2)N=C1N (centres unmarked) [Example 91] |
|  | 0.01 to 0.1 | II (II = 10-100-fold selectivity) | CN1C(=O)C(c2ccc(OC(F)F)cc2)(c2ccc(F)c(-c3cc(F)cnc3F)c2)N=C1N (centres unmarked) [Example 92] |

Continued, molecule first:

| SMILES | IC50 (human BACE1) [µM] | IC50 (human BACE1; [1]) [µM] | BACE1/BACE2 selectivity (human BACE2) |
| --- | --- | --- | --- |
| COc1ccc(C2(c3ccc(C#N)c(-c4cccnc4)c3)N=C(N)N(C)C2=O)cc1C (centres unmarked) [Example 5, 4-[2-amino-4-(4-methoxy-3-methylphenyl)-1-methyl-5-oxo-4,5-dihydro-1H-imidazol-4-yl]-2-pyridin-3-ylbenzonitrile] | 0.11 to 1 |  |  |
| CCN1C(=O)C(c2cccc(-c3cccnc3)c2)(c2ccc(OC)c(C)c2)N=C1N (centres unmarked) [Example 8] |  | 0.01 to 0.1 | II (II = 10-100-fold selectivity) |
| COc1ccc(C2(c3cccc(-c4cnccn4)c3)N=C(N)N(C)C2=O)cc1C (centres unmarked) [Example 9] |  | 0.01 to 0.1 | II (II = 10-100-fold selectivity) |
| CCCOc1cc(C2(c3cccc(-c4cccnc4)c3)N=C(N)N(C)C2=O)ccc1OC (centres unmarked) [Example 16] |  | 0.01 to 0.1 | III (III = <10-fold selectivity) |
| CCCCOc1cc(C2(c3cccc(-c4cccnc4)c3)N=C(N)N(C)C2=O)ccc1OC (centres unmarked) [Example 17] |  | 0.01 to 0.1 | III (III = <10-fold selectivity) |
| CN1C(=O)C(c2ccc(OC(F)(F)F)c(F)c2)(c2ccc(F)c(-c3cncc(F)c3)c2)N=C1N (centres unmarked) [Example 41, 2-Amino-5-[4-fluoro-3-(5-fluoropyridin-3-yl)phenyl]-5-[3-fluoro-4-(trifluoromethoxy)phenyl]-3-methyl-3,5-dihydro-imidazol-4-one] |  | 0.11 to 1 | II (II = 10-100-fold selectivity) |
| CN1C(=O)C(c2ccc(OC(F)(F)F)c(F)c2)(c2ccc(F)c(-c3cccnc3F)c2)N=C1N (centres unmarked) [Example 43] |  | 0.01 to 0.1 | II (II = 10-100-fold selectivity) |
| CN1C(=O)C(c2ccc(OC(F)(F)F)cc2)(c2cccc(-c3cncnc3)c2F)N=C1N (centres unmarked) [Example 48] |  | > 1 | II (II = 10-100-fold selectivity) |
| COc1ccc(C2(c3ccc(F)c(-c4cccnc4F)c3)N=C(N)N(C)C2=O)cc1C(F)(F)F (centres unmarked) [Example 58] |  | 0.01 to 0.1 | II (II = 10-100-fold selectivity) |
| COc1ccc(C2(c3cccc(-c4cccnc4F)c3)N=C(N)N(C)C2=O)cc1C (centres unmarked) [Example 59] |  | 0.01 to 0.1 | II (II = 10-100-fold selectivity) |
| COc1ccc(C2(c3ccc(F)c(-c4cncc(F)c4)c3)N=C(N)N(C)C2=O)cc1C (centres unmarked) [Example 61] |  | 0.01 to 0.1 | II (II = 10-100-fold selectivity) |
| CCOc1ccc(C2(c3cccc(-c4cncc(OC)c4)c3)N=C(N)N(C)C2=O)cc1OCC (centres unmarked) [Example 67] |  | 0.01 to 0.1 | III (III = <10-fold selectivity) |
| CCOc1ccc(C2(c3cccc(-c4cccnc4OC)c3)N=C(N)N(C)C2=O)cc1OCC (centres unmarked) [Example 68] |  | 0.11 to 1 | III (III = <10-fold selectivity) |
| CCOc1ccc(C2(c3cccc(-c4cccnc4F)c3)N=C(N)N(C)C2=O)cc1OCC (centres unmarked) [Example 70] |  | 0.01 to 0.1 | II (II = 10-100-fold selectivity) |
| COc1cncc(-c2cc(C3(c4ccc(OC(F)(F)F)cc4)N=C(N)N(C)C3=O)ccc2F)c1 (centres unmarked) [Example 71] |  | 0.01 to 0.1 | III (III = <10-fold selectivity) |
| COc1ncccc1-c1cc(C2(c3ccc(OC(F)(F)F)cc3)N=C(N)N(C)C2=O)ccc1F (centres unmarked) [Example 72] |  | 0.11 to 1 | II (II = 10-100-fold selectivity) |
| COc1ccc(C2(c3cccc(-c4cccnc4OC)c3)N=C(N)N(C)C2=O)cc1C (centres unmarked) [Example 75] |  | 0.11 to 1 | II (II = 10-100-fold selectivity) |
| CN1C(=O)C(c2ccc(OC(F)(F)F)c(F)c2)(c2ccc(F)c(-c3cnccc3F)c2)N=C1N (centres unmarked) [Example 78] |  | 0.01 to 0.1 | II (II = 10-100-fold selectivity) |
| CCOc1ccc(C2(c3cccc(-c4cnccc4F)c3)N=C(N)N(C)C2=O)cc1OCC (centres unmarked) [Example 81] |  | 0.01 to 0.1 | II (II = 10-100-fold selectivity) |
| CN1C(=O)C(c2ccc(OC(F)(F)F)cc2)(c2ccc(F)c(-c3cnn(C)c3)c2)N=C1N (centres unmarked) [Example 100, 2-Amino-5-[4-fluoro-3-(1-methyl-1H-pyrazol-4-yl)phenyl]3-methyl-5-[4-(trifluoromethoxy)phenyl]-3,5-dihydro-4H-imidazol-4-one] |  | 0.11 to 1 | III (III = <10-fold selectivity) |
| COc1ccc([C@@]2(c3cccc(-c4cccnc4F)c3)N=C(N)N(C)C2=O)cc1C [Example 102A, (5R)-2-Amino-5-[3-(2-fluoropyridin-3-yl)phenyl]-5-(4-methoxy-3-methylphenyl]-3-methyl-3,5-dihydro-4H-imidazol-4-one] | 0.11 to 1 |  |  |
| COc1ccc([C@]2(c3cccc(-c4cccnc4F)c3)N=C(N)N(C)C2=O)cc1C [Example 102B, (5S)-2-Amino-5-[3-(2-fluoropyridin-3-yl)phenyl]-5-(4-methoxy-3-methylphenyl]-3-methyl-3,5-dihydro-4H-imidazol-4-one] | 0.01 to 0.1 |  |  |

Source: patent US7700602B2, “Amino-5,5-diphenylimidazolone derivatives for the inhibition of β-secretase” (Wyeth LLC, priority 2004, dated 2010)
